Test results reported in patent publication US20100129515A1, “FLAVOUR MODULATING SUBSTANCES” (QUEST INTERNATIONAL SERVICES B.V., priority 2005, published 2010).

Columns and labels:
[1] = cited from earlier work; for pungency: compared with capsaicin; for taste: as a dry powder and as an alcoholic or aqueous solution
[2] = Taste of solutions in water (Example 7); type: in vivo
[3] = Tasting of fondant with 2500 ppm menthol by professional panel (Example 8); type: in vivo
Method: Three samples of fondant were prepared by mixing 65% Fondacreme (ex Belgosuc NV Belgium) with 35% sugar syrup (67° Brix). 2500 Ppm menthol was added as a 50% solution in propylene glycol.
To a first sample (sample A), 0.1 ppm N-vanillyl-N′-octyl urea was added To a second sample (sample B), 0.2 ppm N-vanillyl-N′-octyl thiourea was added. Samples A, B and the reference sample were tasted by a professional panel. […] The cooling was perceived more through the whole oral cavity.

[4] = Tasting of 0.6% NaCl / 0.03% MSG solutions by professional panel (Examples 9 and 10); type: in vivo
Method: Three solutions of 0.6% NaCl and 0.03% MSG were prepared.
To a first solution (sample A), 0.1 ppm N-vanillyl-N′-octyl urea was added To a second solution (sample B) 0.2 ppm N-vanillyl-N′-octyl thiourea was added.
(§1) Samples A and B and the reference sample were tasted by a professional panel.
To a first solution (sample A), 5 ppm N-vanillyl-N′-octyl urea was added To a second solution (sample B), 10 ppm N-vanillyl-N′-octyl thiourea was added.

[5] = Tasting of 0.6% NaCl / 0.03% MSG / 4 ppm pepper oleoresin solutions by professional panel (Example 11); type: in vivo
Method: Three solutions of 0.6% NaCl and 0.03% MSG and 4 ppm pepper oleoresin (ex Warner Jenkinson, St Louis, USA) were prepared.
To a first solution (sample A), 1 ppm N-vanillyl-N′-octyl urea was added To a second solution (sample B), 2 ppm N-vanillyl-N′-octyl thiourea was added.
as §1

[6] = Tasting of toothpaste by professional panel (Example 13); type: in vivo
Method: 97 g of a toothpaste base was prepared as follows: 13.8 ml demineralised water, 0.1 g trisodium phosphate (12H2O) and 0.8 g sodium monofluorophosphate were weighed and mixed until clear. 50.0 g of sorbitol was added and the blend was mixed again. The obtained mixture was placed in a Fryma pot. A poly bag was placed in a suitable container and 8.0 g of precipitated silica AC30, 9.0 g of precipitated silica TC15, 0.8 g of sodium carboxymethylcellulose (SCMC 9M31XF) and 1.0 g of a colorant (Tiona (1700)) were weighed and placed in the bag in the order listed. The top of the bag was secured with a tag and the contents were thoroughly mixed to distribute the gum throughout the mixture.
This mixture was added to the Fryma pot. Then 7.0 ml of demineralised water, 1.5 g of sodium lauryl sulphate (Empicol LXV100C) and 5.0 g of PEG 1500 were placed in a beaker and heated to 45° C. and mixed with a Turrax to disperse the ingredients. The dispersion was placed on a magnetic stirrer until clear (while covered with cling film) and was subsequently added to the Fryma pot.
To this base toothpaste 0.8 g of a 25% saccharin soln was added. Part of the base toothpaste was then intensively mixed with N-vanillyl-N′-octyl urea (as obtained in Example 4) to obtain a 0.1 ppm concentration of N-vanillyl-N′-octyl urea (sample A). […]

[7] = Tasting of 5% (w/w) ethanol solutions by trained flavourist panel (Example 2); type: in vivo; conditions: reference 5% (w/w) alcoholic solution
Method: The solid product obtained in example 1 was dissolved in ethanol/water (1:1, w/w) to prepare a 1000 ppm stock solution.
The following 3 alcoholic solutions are prepared: A: 1 ppm N-vanillyl urea as obtained in example 1
B: 10 ppm N-vanillyl urea as obtained in example 1
C: 100 ppm N-vanillyl urea as obtained in example 1
All solutions were tasted by a trained flavourist panel and compared to a 5% (w/w) alcoholic solution (the reference).

[8] = Tasting of 0.6% sodium chloride / 0.03% mono sodium glutamate solution by trained flavourist panel (Example 3); type: in vivo; conditions: 10 ppm in 0.6% sodium chloride, compared with solution A without substance
Method: 2 solutions were prepared containing respectively:
0.03% mono sodium glutamate
10 ppm N-vanillyl urea as described in example 1
Both solutions were tasted by a trained flavourist panel, which described the solutions as follows: […]

[9] = Tasting of 10 ppm menthol solution by trained flavourist panel (Example 4); type: in vivo; conditions: 1 ppm added to 10 ppm menthol solution; compared to the base
Method: 1 ppm N-vanillyl urea as described in example 1 was added to a 10 ppm menthol solution and compared to the base. Both solutions were tasted by a trained flavourist panel, which described the solutions as follows: […]

o-tolylvanillylthiourea
pungency [1]: property of pungency but to a lesser degree than capsaicin

COc1cc(CNC(=S)Nc2ccc(C)cc2)ccc1O [p-tolylvanillyithiourea]
pungency [1]: property of pungency but to a lesser degree than capsaicin

CCCCCCCCNC(=O)NCc1ccc(O)c(OC)c1 [N-vanillyl-N′-octyl urea, N-octyl-N′-vanillyl urea]
taste of solution in water ([2]; 1 ppm in water): strong tingling and burning taste | cooling effect compared to the reference sample ([3]; 0.1 ppm in fondant with 2500 ppm menthol): more intense and long-lasting cooling effect compared to the reference sample | onset of salt impression compared to the reference ([4]; 0.1 ppm in 0.6% NaCl): came faster than in the reference | saltiness compared to the reference sample ([4]; 0.1 ppm in 0.6% NaCl): more salty compared to the reference sample | duration of hotness ([4]; 5 ppm in 0.6% NaCl): up to 10 minutes | onset of salt impression compared to the reference sample ([4]; 5 ppm in 0.6% NaCl): came faster than in the reference sample | saltiness and hotness compared to the reference sample ([4]; 5 ppm in 0.6% NaCl): more salty and had a ‘clean’ and long lasting (up to 10 minutes) hotness compared to the reference sample | hotness and overall impression compared to the reference sample ([5]; 1 ppm in 0.6% NaCl): clearly more hot than the reference sample and the overall impression is much stronger | cooling effect compared with the base toothpaste ([6]; 0.1 ppm in toothpaste): more aggressive cooling and more cooling volume in the oral cavity than the base

CCNC(=O)C1CC(C)CCC1C(C)C (stereo not drawn) [WS-3, reference compound]
cooling effect compared with the base toothpaste ([6]; 10 ppm in toothpaste): in between sample A and the base in cooling strength

CCCCCCCCNC(=S)NCc1ccc(O)c(OC)c1 [N-vanillyl-N′-octyl thiourea]
cooling effect compared to the reference sample ([3]; 0.2 ppm in fondant with 2500 ppm menthol, relative to sample A): the same effects but slightly weaker | salt effects compared to the reference sample ([4]; 0.2 ppm in 0.6% NaCl, relative to sample A): the same effects but slightly weaker | salt and hotness effects compared to the reference sample ([4]; 10 ppm in 0.6% NaCl, relative to sample A): the same effects but slightly weaker | hotness and overall impression compared to the reference sample ([5]; 2 ppm in 0.6% NaCl, relative to sample A): the same effects but slightly weaker

COc1cc(CNC(N)=O)ccc1O [N-vanillyl urea]
taste compared to the reference ([7]; 1 ppm in 5% (w/w) ethanol): more alcohol-like bite than the reference | taste compared to the reference ([7]; 10 ppm in 5% (w/w) ethanol): stronger hot, sharp and pungent, ethanol-like taste compared to the reference solution | taste compared to the reference ([7]; 100 ppm in 5% (w/w) ethanol): stronger hot, sharp and pungent, ethanol-like taste compared to the reference solution | taste description [8]: more salty, umami, warm, bite, preferred to A | taste description [9]: powerful and full cooling sensation, preferred to the base | taste of solution in water ([2]; 50 ppm in water): slightly tingling taste and a weak vanillin-like flavour sensation | taste [1]: tasteless

COc1cc(CNC(N)=S)ccc1O [N-vanillyl thiourea]
taste of solution in water ([2]; 25 ppm in water): tingling, burning and slightly bitter taste and a weak vanillin-like flavour sensation | taste [1]: tasteless

phenylvanillylthiourea
taste [1]: tasteless | pungency [1]: property of pungency but to a lesser degree than capsaicin
